Assay results taken from patent US8211924B2, “1-(azolin-2-yl)amino-1,2-diphenylethane compounds for combating animal pests” (BASF SE, priority 2007, dated 2012).
Read-outs that look alike come from different tables or passages of the source.

Experiments:
Test in all cases: whole plant or invertebrate
Format in all cases: in vivo
Silverleaf Whitefly = conditions: Bemisia argentifolii; for mortality at 10 ppm: concentration 10 ppm; for mortality at 100 ppm: concentration 100 ppm
Description: Selected cotton plants were grown to the cotyledon state (one plant per pot). The cotyledons were dipped into the test solution to provide complete coverage of the foliage and placed in a well-vented area to dry. […] The tip, containing the collected insects, was then gently inserted into the soil containing the treated plant, allowing insects to crawl out of the tip to reach the foliage for feeding. The cups were covered with a re-usable screened lid (150 micron mesh polyester screen PeCap from Tetko Inc). Test plants were maintained in the holding room at about 25° C. and 20-40% relative humid-ity for 3 days avoiding direct exposure to the fluorescent light (24 hour photoperiod) to prevent trapping of heat inside the cup. Mortality was assessed 3 days after treatment of the plants.
by evaluation of the test shown in paragraph III.).

[1] = tested on: Cotton aphid (Aphis gossypi); conditions: 120 h, cotton cotyledons dipped, determined after 5 days, read-out: mortality in comparison with untreated controls
Description: (§1) Cotton plants in the cotyledon stage (variety ‘Delta Pine’) are infested with approximately 100 laboratory-reared aphids by placing infested leaf sections on top of the test plants. The leaf sections are removed after 24 hours. The cotyledons of the intact plants are dipped into gradient solutions of the test compound. Aphid mortality on the treated plants, relative to mortality on check plants, is determined after 5 days.

[2] = tested on: Green Peach Aphid (Myzus persicae); conditions: 120 h, pepper leaves dipped, determined after 5 days, read-out: mortality in comparison with untreated controls
Description: as §1, with “Pepper” for “Cotton”, “2nd leaf-pair” for “cotyledon”, “‘California Wonder’)” for “‘Delta Pine’)”, “40” for “100”, “leaves” for “cotyledons”

[3] = in Gossypium hirsutum, comparative example 1, test of paragraph III, read-out: mortality in comparison with untreated controls [%]
[4] = in Gossypium hirsutum, concentration 300 ppm, comparative example 1, test of paragraph III, read-out: mortality in comparison with untreated controls [%]
[5] = 72 h, 300 ppm, cotton cotyledons dipped, assessed 3 days after treatment, read-out: mortality in comparison with untreated controls

| SMILES | mortality at 10 ppm (Silverleaf Whitefly; [3]) [%] | mortality at 100 ppm (Silverleaf Whitefly; [3]) [%] | mortality at 300 ppm (Silverleaf Whitefly; [4]) [%] | mortality at 300 ppm [1] [%] | mortality at 300 ppm (Silverleaf Whitefly; [5]) [%] | mortality at 300 ppm [2] [%] |
| --- | --- | --- | --- | --- | --- | --- |
| Cc1cc(C)cc(CC(NC2=NCCS2)c2cccc(Cl)c2Cl)c1 (stereo not drawn) [compound C.3, reference compound] | 0 | 100 | 100 | – | – | – |
| Cc1cc(C)cc(CC(N=C2SCCN2C(=S)Nc2cccc(C(F)(F)F)c2)c2cccc(Cl)c2Cl)c1 (stereo not drawn) [Example 4, 2-[1-(2,3-dichlorophenyl)-2-(3,5-dimethylphenyl)ethylimino]-thiazolidine-3-carbothioic acid (3-trifluoromethylphenyl)amide] | 50 | 100 | 100 | > 70 | > 70 | > 70 |
| Cc1cc(C)cc(CC(N=C2SCCN2CCCOC2CCCCO2)c2cccc(Cl)c2Cl)c1 (stereo not drawn) [Example 2, 1-{3-[3-(tetrahydropyran-2-yloxy)propyl]thiazolidin-2-ylidene}amino-1-(2,3-dichlorophenyl)-2-(3,5-dimethylphenyl)-ethane] | – | – | – | > 70 | > 70 | > 70 |
| C#CCN1CCSC1=NC(Cc1cc(C)cc(C)c1)c1cccc(Cl)c1Cl (stereo not drawn) [Example 1, 1-(3-prop-2-ynyl-thiazolidin-2-ylidene)amino-1-(2,3-dichlorophenyl)-2-(3,5-dimethylphenyl)-ethane] | 100 | 100 | 100 | > 70 | > 70 | > 70 |
| Cc1cc(C)cc(CC(N=C2SCCN2C2=NCCS2)c2cccc3c2OC(F)(F)O3)c1 (stereo not drawn) [Example 3, 1-(4,5,4′,5′-tetrahydro-[2,3]-bithiazolyl-2′-ylidene)amino-1-(2,2-difluoro-benzo[1,3]dioxol-4-yl)-2-(3,5-dimethyl-phenyl)-ethane] | – | – | – | > 70 | > 70 | > 70 |
